Experimental data as given in US5049550A, “Diadenosine 5', 5'"-p^1, p^4,-tetraphosphate analogs as antithrombotic agents” (Worcester Foundation for Experimental Biology, priority 1988, dated 1991).
Entries after “also recorded” stand apart in the source; their conditions may differ. Where two headings read alike, the source gives them in different places. Values belong to the compound of their own block, whether it stands above or below them.

Key:
[1] = test system: rabbit platelet aggregation by ADP; assay: ADP-induced aggregation of rabbit platelets; format: cell-based; details: ADP 2×10^-5 M
Procedure: (§1) Rabbit carotid arterial blood was collected in 3.8% sodium citrate (9 volumes blood to 1 volume citrate). Platelet rich plasma (PRP) and platelet poor plasma (PPP) were prepared by centrifugation at 150 g and 1,000 g for 10 minutes respectively. Aggregation studies were performed in a Chrono-Log (Havertown, Pa.) aggregometer with ADP or collagen as aggregating agents. ADP (Sigma Chemical Co.) was used in a final concentration of 2×10^-5 M. Calf skin collagen (Sigma Chemical Co.) was used in a final concentration of 200 ug/ml.
(§2) The effect of AP4 A on rabbit platelet aggregation by ADP and collagen was tested. […] The anti-aggregatory effect of AP4 A was detected at a concentration of 2×10^-4 M (tenfold that of ADP) and increased in a dose-response pattern with increasing concentrations (FIG. 1).

[2] = test system: ADP-induced platelet aggregation; assay: Kinetics of ADP-induced platelet aggregation (double-reciprocal plot); format: cell-based; details: FIG. 6
Procedure: Changes in light transmission reflecting the velocity of ADP-induced platelet aggregability was determined using a platelet aggregometer. Born, G.V.P., Nature 184:927-929 (1962). […] The Y points on the X-intercept are altered by factors [formula] where I is the concentration of inhibitor, and Ki is a characteristic constant. Points on the X-intercept are given by the expression [formula] intercept when [I]=0. When [I] is known, the equation can be solved for Ki.

[3] = plasma; cited from earlier work
[4] = test system: platelets; details: cited from earlier work
[5] = test system: ADP-Induced Platelet Aggregation; assay: ADP-induced platelet aggregation in human platelet-rich plasma; format: cell-based; details: for effect on platelet inhibition at 50 μM: even at 50 μM; for inhibition of platelet aggregation (in words): FIG. 5 at 12.5 μM; for inhibition of platelet aggregation compared with E10: ADP
Procedure: Human platelet-rich plasma was pre-incubated at 37° C. with the appropriate analogue for 1 minute. Aggregation was then induced by 5 μM ADP. ID50 values (i.e. concentration of analogue at which platelets are inhibited by 50 percent) were obtained from log-dose response plots.
FIG. 5 is a graphic representation of the data.
This Example illustrates that sulfur-containing analogues of AP4 A are as effective as E10 in inhibiting aggregation of platelets. Platelet aggregation was induced by ADP and its inhibition measured as in the previous Example.

[6] = test system: Intracarotid Artery Thrombosis; assay: Intracarotid cannula arterial thrombosis model in rabbits; format: in vivo, rabbit
Procedure: Gurewich, V. and Lipinski, B. Thrombosis Research, 9:101 (1976); Louie, S. and Gurewich, V. Thrombosis Research, 30:323-335 (1983).
Male, New Zealand white rabbits, weighing 2-2.5 kg., were anesthetized with ketamine hydrochloride (100 mg/kg intramuscularly). AP4 A (Boehringer (100 Mannheim Biochemicals, Indianapolis, Ind.), or saline control was infused via a marginal ear vein. A segment of the left common carotid artery was isolated by vascular clamps. A 1 cm. length of polyethylene tubing (PE-90, Clay Adams, Parsippany, N.Y.) was inserted, secured by silk ligatures, and the blood flow re-established by removing the clamps. Blood was sampled from the right carotid artery for assays of AP4 A and ATP, and for platelet aggregation studies.
After preliminary trials, a standard AP4 A infusion protocol was established as follows: A dose of AP4 A at 50 mg/kg was reconstituted in 10 ml of normal saline and infused by pump at a uniform rate over two hours. Control rabbits received 10 ml of saline alone. The intracarotid cannula was inserted, and the re-establishment of blood flow timed at 15 minutes into the infusion. Upon the completion of infusion at 2 hours, the intracarotid tubing was removed, and its contents flushed out into a petri dish. The presence of a clot or of liquid blood contents was noted.
Twenty-five rabbits each were assigned to the experimental group that received AP4 A (50 mg/kg), and the control group that received normal saline alone. The incidence of clot formation in the intracarotid cannula in the two groups was compared by the Chi-Square test.
Initially, twelve rabbits received a constant infusion of E10 over a 2 hour period at a dosage of 100 mg in 10 ml. These intravenous infusions were performed as described above for AP4 A.
In addition, 30 mg of E10 in 3 ml saline was administered as a single injection over a one minute time span at the beginning of the cannulation period.

[7] = test system: Intracarotid Artery Thrombosis; details: rabbit model, literature; cited from earlier work
[8] = test system: rabbit platelet aggregation by collagen; assay: Collagen-induced aggregation of rabbit platelets; format: cell-based; details: collagen 200 ug/ml
Procedure: as §1, §2

[9] = Homo sapiens, Platelet, Table 3, 5 μM ADP, 1 minute pre-incubation at 37° C., read-out: ID50 (concentration of analogue at which platelets are inhibited by 50 percent)
[10] = E10 30 mg, single injection over one minute, 6 rabbits
[11] = E10 100 mg, 2 h infusion, 12 rabbits
[12] = E10 total (100 mg + 30 mg series), 18 rabbits
[13] = Homo sapiens, Platelet, Table 5, sulfur-containing analogues, induced by ADP, read-out: ID50 (the source's name)

- IC50 [5, 9]: 22 µM
Compound: Nc1ncnc2c1ncn2[C@@H]1O[C@H](COP(=O)(O)OP(=O)(O)CP(=O)(O)OP(=O)(O)OC[C@H]2O[C@@H](n3cnc4c(N)ncnc43)[C@H](O)[C@@H]2O)[C@@H](O)[C@H]1O [Analogue E2, App(CH2)ppA]

- IC50 [5, 9]: 11 µM
Compound: Nc1ncnc2c1ncn2[C@@H]1O[C@H](COP(=O)(O)OP(=O)(O)CCP(=O)(O)OP(=O)(O)OC[C@H]2O[C@@H](n3cnc4c(N)ncnc43)[C@H](O)[C@@H]2O)[C@@H](O)[C@H]1O [Analogue E3, App(CH2)2 ppA]

- IC50 [5, 9]: > 50 µM
Compound: Nc1ncnc2c1ncn2[C@@H]1O[C@H](COP(=O)(O)CP(=O)(O)OP(=O)(O)CP(=O)(O)OC[C@H]2O[C@@H](n3cnc4c(N)ncnc43)[C@H](O)[C@@H]2O)[C@@H](O)[C@H]1O [Analogue E4, Ap(CH2)pp(CH2)pA]
- effect on platelet inhibition at 50 μM [5]: no effect on platelet inhibition

- IC50 [5, 9]: 4 µM
Compound: Nc1ncnc2c1ncn2[C@@H]1O[C@H](COP(=O)(O)OP(=O)(O)C(F)P(=O)(O)OP(=O)(O)OC[C@H]2O[C@@H](n3cnc4c(N)ncnc43)[C@H](O)[C@@H]2O)[C@@H](O)[C@H]1O (stereo partly shown) [Analogue E5, App(CHF)ppA]
- inhibition of platelet aggregation (in words) ([5]; 5 μM ADP): particularly effective; also recorded: the next most effective in inhibiting platelet aggregation

- IC50 [5, 9]: 50 µM
Compound: Nc1ncnc2c1ncn2[C@@H]1O[C@H](COP(=O)(O)C(F)P(=O)(O)OP(=O)(O)C(F)P(=O)(O)OC[C@H]2O[C@@H](n3cnc4c(N)ncnc43)[C@H](O)[C@@H]2O)[C@@H](O)[C@H]1O (stereo partly shown) [Analogue E6, Ap(CHF)pp(CHF)pA]

- IC50 [5, 9]: 15 µM
Compound: Nc1ncnc2c1ncn2[C@@H]1O[C@H](COP(=O)(O)C(F)(F)P(=O)(O)OP(=O)(O)C(F)(F)P(=O)(O)OC[C@H]2O[C@@H](n3cnc4c(N)ncnc43)[C@H](O)[C@@H]2O)[C@@H](O)[C@H]1O [Analogue E7, Ap(CF2)pp(CF2)pA]

- IC50 [5, 9]: 6 µM
Compound: Nc1ncnc2c1ncn2[C@@H]1O[C@H](COP(=O)(O)OP(=O)(O)C(F)(F)P(=O)(O)OP(=O)(O)OC[C@H]2O[C@@H](n3cnc4c(N)ncnc43)[C@H](O)[C@@H]2O)[C@@H](O)[C@H]1O [Analogue E8, App(CF2)ppA]

- IC50 [5, 9]: 19 µM
Compound: Nc1ncnc2c1ncn2[C@@H]1O[C@H](COP(=O)(O)C(Cl)P(=O)(O)OP(=O)(O)C(Cl)P(=O)(O)OC[C@H]2O[C@@H](n3cnc4c(N)ncnc43)[C@H](O)[C@@H]2O)[C@@H](O)[C@H]1O (stereo partly shown) [Analogue E9, Ap(CHCl)pp(CHCl)pA]

- IC50 [5, 9]: 3 µM
- IC50 [5, 13]: < 5 µM
Compound: Nc1ncnc2c1ncn2[C@@H]1O[C@H](COP(=O)(O)OP(=O)(O)C(Cl)P(=O)(O)OP(=O)(O)OC[C@H]2O[C@@H](n3cnc4c(N)ncnc43)[C@H](O)[C@@H]2O)[C@@H](O)[C@H]1O (stereo partly shown) [Analogue E10, diadenosine chloromethylene tetraphosphate]
- effect on clot formation compared to saline controls ([6]; E10 30 mg and 100 mg series combined): significantly reduces clot formation
- % Clots [6, 10]: 33%
- Clot Absent (rabbits) [6, 10]: 4
- Clot Present (rabbits) [6, 10]: 2
- fraction of rabbits with no incidence of clotting ([6]; E10 100 mg): two-thirds
- % Clots [6, 11]: 33%
- Clot Absent (rabbits) [6, 11]: 8
- Clot Present (rabbits) [6, 11]: 4
- % Clots [6, 12]: 33%
- Clot Absent (rabbits) [6, 12]: 12
- Clot Present (rabbits) [6, 12]: 6
- inhibition of platelet aggregation (in words) ([5]; 5 μM ADP): particularly effective; also recorded: the most effective inhibitor of platelet aggregation; also recorded: potent inhibitor of platelet aggregation; also recorded: potent inhibitors of platelet aggregation and blood clot formation
- Ki ([2]; competitive inhibition of ADP-induced aggregation): 6.7 µM
- type / relative strength of inhibition ([2]; double reciprocal plot): superior to AP4 A as a competitive inhibitor

- IC50 [5, 9]: 9 µM
Compound: Nc1ncnc2c1ncn2[C@@H]1O[C@H](COP(=O)(O)C(Cl)(Cl)P(=O)(O)OP(=O)(O)C(Cl)(Cl)P(=O)(O)OC[C@H]2O[C@@H](n3cnc4c(N)ncnc43)[C@H](O)[C@@H]2O)[C@@H](O)[C@H]1O [Analogue E11, Ap(CCL2)pp(CCl2)pA]

- IC50 [5, 9]: 10 µM
Compound: Nc1ncnc2c1ncn2[C@@H]1O[C@H](COP(=O)(O)OP(=O)(O)C(Cl)(Cl)P(=O)(O)OP(=O)(O)OC[C@H]2O[C@@H](n3cnc4c(N)ncnc43)[C@H](O)[C@@H]2O)[C@@H](O)[C@H]1O [Analogue E12, App(CCl2)ppA]

Further lines, the compound ahead of its results:

Compound: Nc1ncnc2c1ncn2[C@@H]1O[C@H](COP(=O)(O)OP(=O)(O)O)[C@@H](O)[C@H]1O [ADP, adenosine diphosphate, reference compound]
- platelet aggregation by agonist [1]: prompt and complete platelet aggregation
- Km [2]: 3 µM

Compound: Nc1ncnc2c1ncn2[C@@H]1O[C@H](COP(=O)(O)OP(=O)(O)OP(=O)(O)OC[C@H]2O[C@@H](n3cnc4c(N)ncnc43)[C@H](O)[C@@H]2O)[C@@H](O)[C@H]1O [AP3 A, diadenosine 5',5'"-p^1, p^3 -triphosphate]
- degradation products [3]: hydrolysed in plasma to AMP (adenosine monophosphate) and ADP (adenosine diphosphate)
- effect on platelet aggregation [4]: gradual aggregation of platelets; also recorded: immediately reversible upon the addition of AP4 A

Compound: Nc1ncnc2c1ncn2C1OC(COP(=O)(O)CP(=O)(O)OP(=O)(O)CP(=O)(O)OCC2OC(n3cnc4c(N)ncnc43)C(O)C2O)C(O)C1O (stereo not shown) [Analogue E1, Ap(CH2)pp(CH2)pA]
- IC50 ([5]; Table 3, 5 μM ADP, 1 minute pre-incubation at 37° C., read-out: ID50 (concentration of analogue at which platelets are inhibited by 50 percent)): > 50 µM
- effect on platelet inhibition at 50 μM [5]: no effect on platelet inhibition

Compound: Nc1ncnc2c1ncn2[C@@H]1O[C@H](COP(O)(=S)OP(=O)(O)C(F)P(=O)(O)OP(O)(=S)OC[C@H]2O[C@@H](n3cnc4c(N)ncnc43)[C@H](O)[C@@H]2O)[C@@H](O)[C@H]1O (stereo partly shown) [Analogue E13, Aps p(CHF)pps A]
- IC50 [5, 13]: 7 µM
- inhibition of platelet aggregation compared with E10 ([5]; sulfur-containing analogues): an inhibitory effect as great as E10

Compound: Nc1ncnc2c1ncn2[C@@H]1O[C@H](COP(O)(=S)OP(=O)(O)C(F)(F)P(=O)(O)OP(O)(=S)OC[C@H]2O[C@@H](n3cnc4c(N)ncnc43)[C@H](O)[C@@H]2O)[C@@H](O)[C@H]1O (stereo partly shown) [Analogue E14, Aps p(CF2)pps A]
- IC50 [5, 13]: 17 µM

Compound: Nc1ncnc2c1ncn2[C@@H]1O[C@H](COP(O)(=S)OP(=O)(O)OP(=O)(O)OP(O)(=S)OC[C@H]2O[C@@H](n3cnc4c(N)ncnc43)[C@H](O)[C@@H]2O)[C@@H](O)[C@H]1O (stereo partly shown) [Analogue E15, Aps ppps A]
- IC50 [5, 13]: 6 µM
- inhibition of platelet aggregation compared with E10 ([5]; sulfur-containing analogues): an inhibitory effect as great as E10

Compound: CC(=O)Oc1ccccc1C(=O)O [aspirin]
- effect on clot formation in intracarotid cannula [7]: can be modified

Compound: OCCN(CCO)c1nc(N2CCCCC2)c2nc(N(CCO)CCO)nc(N3CCCCC3)c2n1 [dipyridamole]
- effect on clot formation in intracarotid cannula [7]: can be modified

Compound: CCCCCCCCNC(C)C(O)c1ccc(SC(C)C)cc1 (stereo not shown) [suloctidil]
- effect on clot formation in intracarotid cannula [7]: can be modified

Compound: collagen: Calf skin collagen (Sigma Chemical Co.) [reference compound]
- platelet aggregation by agonist [8]: prompt and complete platelet aggregation
